Source: patent publication US20090280110A1, “Cell Model for Alzheimer's Disease Pathology” (UNIVERSITY OF VIRGINIA PATENT FOUNDATION, priority 2006, published 2009)
Entries after “also recorded” stand apart in the source; their conditions may differ.

How the values were obtained:
[1] = tested on: CV-1 cell microtubules; assay: Time lapse fluorescence microscopy of microtubules in transfected CV-1 cells treated with Aβ; format: cell-based, African green monkey
Method: (§1) Cell Culture: CV-1 (African green monkey kidney) cells were cultured in DMEM (Dulbecco's modified Eagle's Medium; GIBCO) supplemented with 10% Cosmic Calf Serum (Hyclone) and 50 μg/ml gentamycin. Cells were transiently transfected using Fugene (Roche) with cDNAs for the longest human isoform of tau, or the projection domain (amino acids 1-248) of tau linked at their C-terminals to eCFP or eYFP (Clontech); with YFP-α-tubulin (Clontech); or with GFP-MAP2c or GFP-MAP2c/tau chimeras (Roger et al., 2004), which were generous gifts of Dr. Shelley Halpain. Primary cortical neurons were purchased from Genlantis and cultured according to their guidelines. Primary hippocampal neurons (Wisco et al., 2003) were grown for at least 8 days prior to Aβ treatment. The tau siRNA (Darmacon SMARTpool) and control scrambled siRNA (Darmacon non-specific duplex II) were transfected into primary hippocampal neurons using the rat neuron Nucleofection system (Amaxa) and program G-13 (Qiang et al., 2006). Cells were cultured for 4 days after Nucleofection, and then were exposed to Aβ.
Aβ treatment: Previously described methods were used to synthesize (Burdick et al., 1992) and resuspend (Kayed et al., 2003) Aβ42 and Aβ40. The Aβ was added to cells cultured in serum-free DMEM to final concentrations from 0.1-5 μM. Pre-fibrillar Aβ was used in the first and second days following resuspension, while fibrillar Aβ was used following at least 7 days of stirring.
Microscopy: Confocal live cell imaging and immunofluorescence microscopy were performed on a Zeiss Axiovert 100 using Openlab 4.0 (Improvision) software, as previously described (Mateer et al., 2002). For electron microscopy, primary cortical and hippocampal neurons were grown on glass coverslips, treated with Aβ42, and fixed in 2.5% glutaraldehyde+0.5% tannic acid in 0.1 M cacodylate buffer pH 7.4. Cells on coverslips were dehydrated and capsule embedded in EPON, and the glass coverslip was removed from the EPON by alternating liquid nitrogen and warm water submersion of the capsule. Sectioned samples were viewed on a JEOL JEM 1010 electron microscope at 80 kV and images captured using a SA1-12c 16 megapixel cooled CCD (Scientific Instruments and Applications, Inc).

[2] = tested on: microtubules in primary hippocampal neurons; assay: Triton X-100 extraction partitioning soluble and polymerized tubulin, immunoblotting; format: cell-based, rat; details: 2 hours
Method: Microtubule Extraction/Blotting: Primary hippocampal neurons were treated with 1-3 μM pre-fibrillar or fibrillar Aβ42. Cells were washed with PBS, and extracted with Triton X-100 in a microtubule stabilizing buffer (Black et al., 1996). Briefly, cells were incubated with PHEM buffer (60 mM PIPES pH 6.9, 25 mM HEPES, 10 mM EGTA, 2 mM MgCl2) with 10 μM taxol, and 0.2% Triton X-100 for 5 minutes. The buffer was collected and centrifuged for 5 minutes at maximum speed in an Eppendorf model 5415 table top centrifuge, and the supernatant removed and added to sample buffer. An equivalent volume of PHEM buffer and sample buffer was added to the dish, and this sample was added to the pellet from the spin. Equal volumes of supernatants and pellets, which respectively contained soluble and polymerized tubulin (Black et al., 1996), were then analyzed by immunoblotting with DM1α monoclonal anti-α-tubulin (Sigma) and monoclonal tau-5. DM1α (Blose et al., 1984) and tau-5 (Loomis et al., 1990) recognize all isoforms or α-tubulin and tau, respectively, independently of post-translational modifications. Quantitation of scanned immunoreactive α-tubulin bands was performed using the public domain image processing software, Image J at the NIH website.

[3] = tested on: primary rat cortical neurons; assay: Immunofluorescence and electron microscopy of neurons treated with Aβ42; format: cell-based; details: 1 μM
Method: as §1
Microscopy: Confocal live cell imaging and immunofluorescence microscopy were performed on a Zeiss Axiovert 100 using Openlab 4.0 (Improvision) software, as previously described (Mateer et al., 2002). […]

[4] = tested on: tau; assay: Western blotting with phosphorylation-sensitive anti-tau antibodies (PHF-1, AT180, tau-1); format: cell-based; details: primary rat hippocampal neurons, 1 μM, 2 hours
Description: Antibodies: Tau-5, Tau-1, and R1 tau were generous gifts of Dr. Lester Binder, and PHF-1 was kindly provided by Dr. Peter Davies. AT180 (Pierce Endogen), DM1α (Sigma Chemical), Actin C4 (Chemicon), fluorescently tagged goat anti-mouse IgG and goat anti-rabbit (Southern Biotech), and HRP-labeled goat anti-mouse IgG (KPL) were acquired from the indicated commercial sources.

Substance	microtubule integrity in tau-expressing cells ([1]; CV-1 cells expressing tau-CFP, as much as 5 μM, more than two hours)	microtubules in tau-expressing cells ([1]; tau-expressing CV-1 cells, 3 μM, 0-140 minutes (FIG. 1c))	tubulin polymerized ([2]; primary hippocampal neurons, 3 μM, about 90% in cells not exposed) [%]	time after addition until tau dissociated from microtubules ([1]; CV-1 cells co-expressing tau-CFP and YFP-tubulin, 0.1-3 μM) [h]	concentration added to culture media at which tau dissociated from microtubules, which completely disassembled soon thereafter ([1]; CV-1 cells co-expressing tau-CFP and YFP-tubulin, within 1-2 hours) [µM]	microtubule integrity in cells without tau ([1]; CV-1 cells expressing YFP-tubulin but not tau-CFP, as much as 3 μM, more than two hours)	effect on tau and microtubules in tau-expressing cells ([1]; CV-1 cells with tau-CFP and YFP-tubulin, 1 μM, 0-120 minutes (FIG. 1a))	microtubules in cells expressing the N-terminal arm (projection domain) of tau coupled to CFP ([1]; CV-1 cells, 1 μM)	microtubules in cells expressing GFP-tau chimera ([1]; CV-1 cells, 1 μM, less than an hour)	microtubules in cells expressing GFP-MAP2c chimera ([1]; CV-1 cells, 1 μM, more than 2 hours)	microtubule integrity in cells expressing GFP-MAP2c ([1]; CV-1 cells, 1 μM, over 2 hours)	neurite morphology by immunofluorescence ([3]; 30 minutes)	neurite microtubules by electron microscopy ([3]; 2 hours)	change in tubulin levels in response to Aβ42 in tau siRNA-treated cells ([2]; primary neurons with tau siRNA, 2 μM, compared to tau expressing cells)	AD-like tau phosphorylation [4]
fibrillar Aβ42: synthesized Aβ42 peptide used following at least 7 days of stirring	unaffected	unaffected	65												
pre-fibrillar Aβ42: synthesized Aβ42 peptide used in the first and second days following resuspension; monomers to oligomers				1 to 2	0.1 to 3	remained intact	caused tau to dissociate from microtubules, and the microtubules to disassemble soon thereafter	depolymerized	depolymerized	remained intact	did not cause any apparent loss of microtubule integrity; also recorded: remained intact	swollen varicosities	fewer, less organized microtubules; also recorded: numerous varicosities that were filled with membrane-bound organelles and lacked microtubules	no change	did not cause increased AD-like tau phosphorylation
